Entries after “also recorded” stand apart in the source; their conditions may differ.
Key:
[1] = system: chloroplasts of the tobacco leaf tissues; assay: Tobacco transient assay, confocal microscopy of TraP-YFP/GFP; format: cell-based, Nicotiana tabacum; conditions: TraP-YFP or TraP-GFP fusion, Agrobacterium-infiltrated tobacco leaf tissue
Excerpt: The above described chimeric chloroplast transit peptide sequences were initially tested via a transient in planta assay. Polynucleotide sequences which encode the TraP10 (SEQ ID NO:9), TraP11 (SEQ ID NO:10), TraP17 (SEQ ID NO:11), TraP18 (SEQ ID NO:12), TraP19 (SEQ ID NO:13), TraP26 (SEQ ID NO:14), TraP27 (SEQ ID NO:15), and TraP28 (SEQ ID NO:16), chimeric chloroplast transit peptide sequences were synthesized. A linker sequence (SEQ ID NO:17) was incorporated between the TraP sequence and the yfp coding sequence of TraP10 and TraP11. The resulting constructs contained two plant transcription units (PTU). The first PTU was comprised of the Arabidopsis thaliana Ubiquitin 10 promoter (AtUbi10 promoter; Callis, et al., (1990) J. Biol. Chem., 265: 12486-12493), TraP-yellow fluorescent protein fusion gene (TraP-YFP; US Patent App. 2007/0298412) or the TraP-green fluorescent protein fusion gene (TraP-GFP; Sheen et al., (1995) Plant J., 8(5): 777-84), and Agrobacterium tumefaciens ORF 23 3′ untranslated region (AtuORF23 3′UTR; U.S. Pat. No. 5,428,147). The second PTU was comprised of the Cassava Vein Mosaic Virus promoter (CsVMV promoter; Verdaguer et al., (1996) Plant Molecular Biology, 31: 1129-1139), phosphinothricin acetyl transferase (PAT; Wohlleben et al., (1988) Gene, 70: 25-37) or DSM-II (International Patent App. 2008070845), and Agrobacterium tumefaciens ORF 1 3′ untranslated region (AtuORF1 3′UTR; Huang et al., (1990) J. Bacteriol., 172: 1814-1822). Construct pDAB101979 contains the TraP10 chimeric chloroplast transit peptide (FIG. 3). Construct pDAB101980 contains the TraP11 chimeric chloroplast transit peptide (FIG. 4). Construct pDAB107634 contains the TraP17 chimeric chloroplast transit peptide (FIG. 5). Construct pDAB107635 contains the TraP18 chimeric chloroplast transit peptide (FIG. 6). Construct pDAB107636 contains the TraP19 chimeric chloroplast transit peptide (FIG. 7). Construct pDAB109847 contains the TraP26 chimeric chloroplast transit peptide (FIG. 8). Construct pDAB109848 contains the TraP27 chimeric chloroplast transit peptide (FIG. 9). Construct pDAB109849 contains the TraP28 chimeric chloroplast transit peptide (FIG. 10). […] The constructs were confirmed via restriction enzyme digestion and sequencing. Finally, the constructs were transformed into Agrobacterium tumefaciens and stored as glycerol stocks.
From an Agrobacterium glycerol stock, a loop full of frozen culture was inoculated into 2 ml of Yeast-extract Peptone Dextrose (100 μg/ml spectinomycin) in a 14 ml sterile tube. The inoculated media was incubated at 28° C. overnight with shaking at 200 rpm. The following day about 100 μl of the culture was used to inoculate 25 ml of YPD (100 μg/ml spectinomycin) in a 125 ml sterile tri-baffled flask, and incubated overnight at 28° C. overnight with shaking at 200 rpm. The following day the cultures were diluted to an OD600 of 0.5 in sterile ddH2O (pH 8.0). The diluted Agrobacterium strain was mixed with a second Agrobacterium strain containing the P19 helper protein at a ratio of 1:1. The culture were used for tobacco leaf infiltration via the Voinnet method. Voinnet O, Rivas S, Mestre P, and Baulcombe D, (2003) An enhanced transient expression system in plants based on suppression of gene silencing by the p19 protein of tomato bushy stunt virus. The Plant Journal, 33: 949-956. Infiltrated tobacco plants were placed in a Conviron™ set at 16 hr of light at 24° C. for at least three days until being assayed.
Agrobacterium-infiltrated tobacco leaves were severed from the plant, and placed into a petri-dish with water to prevent dehydration. The infiltrated tobacco leaves were observed under blue light excitation with long-pass filter glasses held in place using a Dark Reader Hand Lamp™ (Clare Chemical Research Co.; Dolores, Colo.) to identify undamaged areas of the leaf that were successfully expressing the YFP or GFP reporter proteins. […]

[2] = system: infiltrated tobacco cells; assay: Western blot of infiltrated tobacco plants; format: cell-based, Nicotiana tabacum; conditions: infiltrated tobacco leaf tissue
Protocol: Samples of the infiltrated tobacco plants were assayed via Western blotting. Leaf punches were collected and subjected to bead-milling. About 100-200 mg of leaf material was mixed with 2 BBs (Daisy; Rogers, Ark.) and […] of PBST for 3 minutes in a Kleco™ bead mill. The samples were then spun down in a centrifuge at 14,000× g at 4° C. The supernatant was removed and either analyzed directly via Western blot or immunoprecipitated. The immunoprecipitations were performed using the Pierce Direct IP Kit™ (Thermo Scientific; Rockford, Ill.) following the manufacturer's protocol. Approximately, 50 μg of anti-YFP or anti-GFP was bound to the resin. The samples were incubated with the resin overnight at 4° C. Next, the samples were washed and eluted the following morning and prepped for analysis by combining equal volumes of 2×8M Urea sample buffer and then boiling the samples for 5 minutes. The boiled samples were run on a 4-12% SDS-Bis Tris gel in MOPS buffer for 40 minutes. The gel was then blotted using the Invitrogen iBlot™ (Life Technologies; Carlsbad, Calif.) following the manufacturer's protocol. The blotted membrane was blocked for 10 minutes using 5% non-fat dry milk in PBS-Tween® solution. The membrane was probed with the primary antibody (monoclonal anti-GFP or anti-YFP in rabbit) used at a 1:1000 dilution in the 5% non-fat dry milk in PBS-Tween® solution for 1 hour. Next, the membrane was rinsed three times for five minutes with PBS-Tween® to remove all unbound primary antibody. The membrane was probed with a secondary monoclonal anti-rabbit in goat antibody (Life Technologies) used at a 1:1000 dilution, for 60 minutes. The membrane was washed as previously described and developed by adding Themo BCIP/NBT™ substrate. The colormetric substrate was allowed to develop for 5-10 minutes and then the blots were rinsed with water before being dried.

[3] = system: dgt-28 transformed T1 Arabidopsis; assay: Glyphosate tolerance of dgt-28 transformed T1 Arabidopsis; format: in vivo, Arabidopsis thaliana; conditions: dgt-28 linked with the chloroplast transit peptide, T1 Arabidopsis
Protocol: The Arabidopsis T1 transformants (from transformation with pDAB114286 or pDAB114287) were first selected from the background of untransformed seed using a glufosinate selection scheme. Three flats or 50,000 seed were analyzed for each T1 construct. The selected T1 plants were molecularly characterized (as described above) and events with a range of copy number were sprayed with various rates of commercial glyphosate.
Transgenic T1 Arabidopsis plants containing the dgt-28 transgene were sprayed with differing rates of glyphosate. Elevated rates were applied in this study to determine the relative levels of resistance (420, 840, 1,680 or 3,360 g ae/ha). The typical 1× field usage rate of glyphosate is 1120 g ae/ha. The response of these plants is presented in terms of % visual injury 2 weeks after treatment (WAT). The T1 Arabidopsis plants that were used in this study were of variable copy number for the dgt-28 transgene. The low copy dgt-28 T1 Arabidopsis plants were self-pollinated and used to produce T2 plants.
An arithmetic mean and standard deviation is presented for each construct used for Arabidopsis transformation. The range in individual response is also indicated in the last column for each rate and transformation. Wildtype, non-transformed Arabidopsis thaliana c.v. Columbia served as a glyphosate sensitive control.

[4] = system: chloroplasts of the maize protoplasts; assay: Maize protoplast transient assay, microscopy of TraP-GFP; format: cell-based, Zea mays c.v. B104; conditions: TraP-GFP fusion, transfected maize protoplasts, microscopy after 12 hours
Protocol: Seed of Zea mays c.v. B104 were surface sterilized by shaking vigorously in 50% Clorox™ (3% sodium hypochlorite), containing 2-3 drops of Tween® 20, for about 20 minutes. The seeds were rinsed thoroughly with sterile distilled water. The sterile seed were plated onto ½ MS medium in Phytatrays or similar type boxes, and allowed to grow in the dark (28° C.) for 12 to 20 days. A maize protoplast transient assay was used to obtain and transfect maize protoplasts from leaves of Zea mays c.v. B104. This maize protoplast assay is a modification of the system described by Yoo, S.-D., Cho, Y.-H., and Sheen, J., (2007), Arabidopsis Mesophyll Protoplasts: A Versitile Cell System for Transient Gene Expression Analysis, Nature Protocols, 2: 1565-1572. The solutions were prepared as described by Yoo et. al., (2007), with the exception that the mannitol concentration used for the following experiments was change to 0.6 M.
Transfection of 100 to 500 μl of protoplasts (1-5×10^5 cells) was completed by adding the protoplasts to a 2 ml microfuge tube containing about 40 μg of plasmid DNA, at room temperature. The volume of DNA was preferably kept to about 10% of the protoplast volume. The protoplasts and DNA were occasionally mixed during a 5 minute incubation period. An equal volume of PEG solution was slowly added to the protoplasts and DNA, 2 drops at a time with mixing in between the addition of the drops of PEG solution. The tubes were allowed to incubate for about 10 minutes with occasional gentle mixing. Next, 1 ml of W5+ solution was added and mixed by inverting the tube several times. The tube(s) were centrifuged for 5 minutes at 75× g at a temperature of 4° C. Finally, the supernatant was removed and the pellet was resuspended in 1 ml of WI solution and the protoplasts were placed into a small petri plate (35×10 mm) or into 6-well multiwell plates and incubated overnight in the dark at room temperature. Fluorescence of GFP was viewed by microscopy after 12 hours of incubation. The microscopy conditions similar to those previously described were used for the imaging.

Molecule | translocation of YFP or GFP fluorescent protein into chloroplasts [1] | translocation of YFP or GFP fluorescent protein into chloroplasts ([1]; listed as TraP26-GFP) | TraP processed and cleaved from the YFP or GFP protein [2] | protection to glyphosate [3] | translocation of YFP or GFP fluorescent protein into chloroplasts ([1]; listed as TraP28-GFP) | translocation of YFP or GFP fluorescent protein into chloroplasts ([1]; listed as TraP10-YFP) | translocation of GFP fluorescent protein into chloroplasts [4] | translocation of GFP fluorescent protein into chloroplasts ([4]; listed as TraP17-GFP) | translocation of YFP or GFP fluorescent protein into chloroplasts ([1]; listed as TraP17-GFP)
TraP26: synthetic chloroplast transit peptide, SEQ ID NO:6; tested fused to GFP (pDAB109847) (MAQVSMIPNAIQAPCSISLSKSQAGKSVRKVSLKPNQHAAWGLRRSGMRVGNPEVVVSAS; TraP26) | accumulated within the chloroplasts; also recorded: successfully targeted GFP to tobacco chloroplasts | translocated into the chloroplasts | processed and cleaved from the YFP or GFP protein | provide protection to glyphosate |  |  |  |  | 
TraP28: synthetic chloroplast transit peptide, SEQ ID NO:8; tested fused to GFP (pDAB109849) (MAVQSNMICAGVANPFVSPNLSKTRASKSVYSVLGTRLNSSARGKKSAMPLIGNRVPVSA; TraP28) | accumulated within the chloroplasts; also recorded: successfully targeted GFP to tobacco chloroplasts |  | processed and cleaved from the YFP or GFP protein |  | translocated into the chloroplasts |  |  |  | 
TraP10: chimeric chloroplast transit peptide, SEQ ID NO:1; N-terminus Brassica napus, C-terminus Glycine max EPSPS; tested fused to YFP (pDAB101979) (protein, TraP10) MAQSSRICHGVQNPCVIISNLSKSNQNKSPFSVSLRPRLWGASKSRIPMHKNGSFMGNFNVGKGNSGVFKVS | accumulated within the chloroplasts; also recorded: successfully targeted YFP to tobacco chloroplasts |  | processed and cleaved from the YFP or GFP protein |  |  | translocated into the chloroplasts |  |  | 
TraP17: chimeric chloroplast transit peptide, SEQ ID NO:3; N-terminus Calystegia, C-terminus Chlamydamonas reinhardtii; tested fused to GFP (pDAB107634) (protein, TraP17) MAQVNNMMQGLRLSPSNLSKPQTPLPSHSLLLGSNSLKNSVSASSVAPAPACSAPAGAGRRAVVVR | did not translocate YFP fluorescent proteins into the chloroplasts of tobacco |  |  |  |  |  | did translocate YFP fluorescent proteins into the chroroplasts of maize; also recorded: accumulated within the chloroplasts; also recorded: successfully targeted GFP to maize chloroplasts | translocated into the chloroplasts | did not translocate into the chloroplasts

Source: patent publication US10253323B2, “Chloroplast transit peptides” (priority 2015, dated 2019)
